Source: PubChem BioAssay (NCI)
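Interpolation was linear, between the two tested concentrations surrounding the appropriate level; five concentrations were tested over 48 hours in 96-well plates. GI50 = concentration required for 50% inhibition of growth. At the TGI there is no net growth.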

Legend:
Assay in all cases: DTP human tumour cell line panel, 48 h
SW-620 colon = test system: SW-620 colon
SK-MEL-2 melanoma = test system: SK-MEL-2 melanoma
HS 578T breast = test system: HS 578T breast
HOP-92 NSCLC = test system: HOP-92 NSCLC
MDA-N = test system: MDA-N
HCT-15 colon = test system: HCT-15 colon
HCC-2998 colon = test system: HCC-2998 colon
COLO 205 colon = test system: COLO 205 colon
SR leukemia = test system: SR leukemia

Row | Structure (SMILES) | TGI (SW-620 colon) | TGI (SK-MEL-2 melanoma) | TGI (HS 578T breast) | TGI (HOP-92 NSCLC) | TGI (MDA-N) | TGI (HCT-15 colon) | TGI (HCC-2998 colon) | TGI (COLO 205 colon) | TGI (SR leukemia) | GI50 (SK-MEL-2 melanoma) | GI50 (HOP-92 NSCLC) | GI50 (HCC-2998 colon) | GI50 (SR leukemia) | GI50 (SW-620 colon) | GI50 (HS 578T breast) | GI50 (HCT-15 colon) | GI50 (COLO 205 colon)
1 | N#CC1=CNc2sccc2S1(=O)=O | > 100 µM | > 100 µM | > 100 µM | > 100 µM | > 100 µM | > 100 µM | > 100 µM | > 100 µM |  |  |  |  |  |  |  |  | 
2 | O=C(O)c1ccccc1/C=N\NC1=NCCCCN1 | > 100 µM | > 100 µM | > 100 µM |  | > 100 µM | > 100 µM | > 100 µM | > 100 µM | > 100 µM |  |  |  |  |  |  |  | 
3 | COC(=O)C1(C(=O)OC)N=C(C)OC1C(C)C (stereo unspecified) | > 100 µM | > 100 µM |  | > 100 µM | > 100 µM | > 100 µM | > 100 µM | > 100 µM | > 100 µM |  |  |  |  |  |  |  | 
4 | COC(=O)[C@@H]1N2C(=S)N(c3ccccc3)C(=O)[C@H]2SC1(C)C | > 100 µM | > 100 µM |  | 69.2 µM | > 100 µM | > 100 µM | > 100 µM | > 100 µM | > 100 µM |  |  |  |  |  |  |  | 
5 | Cc1[nH]c(-c2ccccc2)c(-c2ccc(Cl)cc2)c1C(=O)ONC(=O)c1ccccc1 | 31.7 µM | 11.2 µM | 5.72 µM | 4.01 µM | 4.45 µM | 21.6 µM | 16.2 µM | 22.9 µM |  |  |  |  |  |  |  |  | 
6 | CCCCN(c1ccccc1)c1ncnc2c1cnn2C | > 100 µM | 78.1 µM | 76.4 µM | > 100 µM | > 100 µM | > 100 µM | > 100 µM | > 100 µM |  |  |  |  |  |  |  |  | 
7 | CN1C2CC(=O)CC1[C@@H]1OC(c3ccccc3)O[C@H]21 (stereo partly specified) | > 100 µM | > 100 µM | > 100 µM |  | > 100 µM | > 100 µM | > 100 µM | > 100 µM | > 100 µM |  |  |  |  |  |  |  | 
8 | OCCN=C1Nc2ccc(Cl)cc2C(=S)N2CSC[C@@H]12 | > 100 µM | > 100 µM |  | > 100 µM |  | > 100 µM | > 100 µM | > 100 µM | > 100 µM |  |  |  |  |  |  |  | 
9 | CCOC(=O)c1cn(-c2ccc(Cl)cc2)c(=O)n2c1nc1ccccc12 | > 100 µM | > 100 µM |  | > 100 µM |  | > 100 µM | > 100 µM | > 100 µM | > 100 µM |  |  |  |  |  |  |  | 
10 | O=C(N=Nc1ccccc1Br)NNc1ccccc1Br | > 100 µM | > 100 µM |  |  | > 100 µM | > 100 µM | 56.6 µM |  | > 100 µM |  |  |  |  |  |  |  | 
11 | CC[N+](C)(CC)CCN1C(=O)c2ccccc2S1(=O)=O | > 100 µM | > 100 µM | > 100 µM | > 100 µM |  | > 100 µM |  | > 100 µM |  |  |  |  |  |  |  |  | 
12 | COc1ccc(CNc2nc(NCc3ccc(OC)cc3)nc(N3CCOCC3)n2)cc1 | > 100 µM | > 100 µM | > 100 µM | > 100 µM |  | 6.21 µM |  | > 100 µM | 4.92 µM |  |  |  |  |  |  |  | 
13 | NC(=O)CC(Nc1ncc2c(n1)-c1ccccc1OC2)C(=O)O (stereo unspecified) | > 100 µM | > 100 µM | > 100 µM | > 100 µM | > 100 µM | > 100 µM |  | > 100 µM | > 100 µM |  |  |  |  |  |  |  | 
14 | CC[N+](CC)=c1ccc2nc3c(cc(N)c4ccccc43)oc-2c1 |  | 2.25 µM |  | 0.497 µM |  |  | 0.661 µM |  |  | 0.968 µM | 0.19 µM | 0.257 µM |  |  |  |  | 
15 | N#Cc1c2c(c(N3CCOCC3)n3c1nc1ccccc13)CCCC2 | 29 µM | 31.8 µM | > 100 µM | 38.8 µM | 38.7 µM | 36.2 µM | 40.9 µM | 37.5 µM |  |  |  |  |  |  |  |  | 
16 | O=C(c1ccco1)N(C(=S)OCc1ccccn1)c1ccccc1 | > 100 µM | > 100 µM | > 100 µM |  | > 100 µM | > 100 µM |  | > 100 µM | 8.58 µM |  |  |  |  |  |  |  | 
17 | CSc1nncc(-c2cc3c(c(SC)n2)CCC3)n1 | > 100 µM | > 100 µM |  |  |  | > 100 µM |  | > 100 µM |  |  |  |  |  |  |  |  | 
18 | O=C(/C=C/c1ccc([N+](=O)[O-])cc1)c1nc2ccccc2[nH]1 | > 100 µM | > 100 µM | > 100 µM | > 100 µM | > 100 µM | > 100 µM |  | > 100 µM | 11.3 µM |  |  |  |  |  |  |  | 
19 | COc1cccc(-c2nc3sccn3c2-c2ccnc(NCCNC(=O)Nc3cccc(C(F)(F)F)c3)n2)c1 | 91.5 µM | 4.46 µM | 29 µM | 9.47 µM |  | 16.4 µM | 18.7 µM | 19.2 µM | 29.7 µM | 2.03 µM | 0.853 µM | 3.75 µM | 3.75 µM | 4.47 µM | 3.15 µM | 3.05 µM | 5.37 µM
20 | O=C(NNC(=S)Nc1ccccc1)c1csc(NC(=S)NC2CCCCC2)n1 | > 100 µM | > 100 µM |  | > 100 µM | > 100 µM | > 100 µM | > 100 µM | > 100 µM | > 100 µM |  |  |  |  |  |  |  | 
21 | OC1OC(c2ccco2)C(F)(F)C(F)(F)C1(F)F (stereo unspecified) | > 100 µM | > 100 µM | 76.2 µM | > 100 µM | > 100 µM | > 100 µM |  | > 100 µM |  |  |  |  |  |  |  |  | 
22 | O=C1OS2(OCc3cccc4cccc2c34)c2ccccc21 (stereo unspecified) | > 100 µM | > 100 µM |  | > 100 µM | > 100 µM | > 100 µM | > 100 µM | > 100 µM | > 100 µM |  |  |  |  |  |  |  | 
23 | CSC1SCC2C(=O)N(C)C3(CC3C)C(=O)OCC(NC(=O)c3nc4ccccc4cc3O)C(=O)NC(C)C(=O)N(C)C1C(=O)N(C)C1(CC1C)C(=O)OCC(NC(=O)c1nc3ccccc3cc1O)C(=O)NC(C)C(=O)N2C (stereo unspecified) | > 100 µM |  | < 0.0001 µM | < 0.0001 µM |  |  | < 0.0001 µM | < 0.0001 µM | < 0.0001 µM |  |  |  |  |  |  |  | 
24 | O=C(NCCO)c1ccc(Cl)cc1 | > 100 µM | > 100 µM | > 100 µM | > 100 µM | > 100 µM | > 100 µM | > 100 µM |  | > 100 µM |  |  |  |  |  |  |  | 
25 | COc1ccc(-c2c(C#N)c(-c3ccccc3)n(NS(=O)(=O)c3ccccc3)c(=O)c2C#N)cc1 | > 100 µM | > 100 µM | > 100 µM | > 100 µM | > 100 µM | > 100 µM | > 100 µM | > 100 µM |  |  |  |  |  |  |  |  | 
